Results as given in US20050050594A1, “Tryptophan synthase as a site of herbicide action” (priority 1999, published 2005).
pIC50: −log10 of the molar value. Structures can show the parent of a compound that is named as a salt. Where two headings read alike, the source gives them in different places. Each block holds one molecule with its values, some of them ahead of it.

Assays:
Arabidopsis thaliana = assay: Herbicidal activity and tryptophan reversal on Arabidopsis grown on agar medium; format: in vivo; design: key: 0 - no effect; 9 - total kill; C - chlorotic seedlings 4-6 days after treatment
Experimental: In this experiment, TS inhibitors were tested on Arabidopsis thaliana grown Murashige minimal organics medium, (obtained from Life Technologies, Grand Island, N.Y.), containing 0.7% agar. Compounds were tested at different concentrations to assess their herbicidal activity.

[1] = molecular target: T1, Salmonella typhimurium tryptophan synthase holoenzyme (α2β2), TSα reaction (Salmonella typhimurium, UniProt P00929); assay: Inhibition of tryptophan synthase by the TSα reaction, microtiter kinetic coupled enzyme assay; format: biochemical
T1 construct: made in house; host or cells: E. coli strain CB149pSTB7
T1 sequence (P00929 whole entry): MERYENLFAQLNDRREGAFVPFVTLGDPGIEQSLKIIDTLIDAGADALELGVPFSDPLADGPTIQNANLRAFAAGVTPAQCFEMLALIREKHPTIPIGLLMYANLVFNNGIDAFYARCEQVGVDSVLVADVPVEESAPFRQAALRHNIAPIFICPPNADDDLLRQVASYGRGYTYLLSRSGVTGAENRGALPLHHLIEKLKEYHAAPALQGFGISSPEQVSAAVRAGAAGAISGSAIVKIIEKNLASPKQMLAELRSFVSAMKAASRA
T1 sequence (P0A2K1 2-397, further chain): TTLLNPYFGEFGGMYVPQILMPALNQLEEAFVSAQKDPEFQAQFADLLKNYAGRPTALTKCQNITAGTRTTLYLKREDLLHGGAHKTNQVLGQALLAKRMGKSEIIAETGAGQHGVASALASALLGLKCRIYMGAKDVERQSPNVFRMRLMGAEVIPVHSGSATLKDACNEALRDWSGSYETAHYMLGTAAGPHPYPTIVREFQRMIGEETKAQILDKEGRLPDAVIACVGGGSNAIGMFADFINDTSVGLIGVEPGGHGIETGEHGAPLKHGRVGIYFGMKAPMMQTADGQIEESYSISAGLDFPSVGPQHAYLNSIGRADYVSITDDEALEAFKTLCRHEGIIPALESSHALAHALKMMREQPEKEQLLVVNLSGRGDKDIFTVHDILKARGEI
Description: Inhibitors of TS were identified by their ability to inhibit the production of glyceraldehyde-3-P by the TSα reaction of the Salmonella typhimurium holoenzyme (α2β2) in the presence of a limiting amount of indole-3-glycerolphosphate and an excess of serine
The assay was developed as a new microtiter plate kinetic enzyme assay based on the combined methods of Creighton (EurJBch 13:1-10, 1970) and Creighton and Yanofsky (JBC 241:980, 1966) with modifications. The rate of glyceraldehyde production was measured as the linear […] (spectrophotometric absorbance at 340 nm) in the presence of glyceraldehyde-3-phosphate dehydrogenase in a coupled enzyme assay.
The assay solution contained a test inhibitor compound, 50 mM Tris-Cl (pH 7.8), 6 mM sodium arsenate, 5 μg/ml pyridoxal phosphate, 0.5 mM DTT, 0.18M NaCl, 60 mM serine, 1.6 mM NAD+, 8 e.u./ml yeast glyceraldehyde-3-phosphate dehydrogenase (Sigma, Catalog #G2647; Kirschner et al., Eur J Bch, 1975, 60:513 and approximately 1.5 e.u. Salmonella TS. 100 μM IGP was added to start the reaction, which was run at 37° C. and using 300 μl per assay in a microtiter plate.
The substrate IGP was used at 1.5 to 2 times its Km concentration to enhance the likelihood of identifying weak inhibitors, binding at the substrate binding site. This approach to identifying enzyme inhibitors was novel, since an excess of all substrates, (at least 5-times the Km value of each), is conventionally used in the measurement of enzyme activity.
Potential inhibitors were evaluated by adding 100 μM inhibitor (equimolar to substrate IGP):or less, in a 1:1 dilution series down from 100 μM, until the inhibition measured was less than 15%. Reaction rates at Vmax were compared in the presence and absence of inhibitors.
In addition, some weaker inhibitors were identified following preincubation of the inhibitor with the TS assay mix for 24 hrs prior to the addition of IGP. The identifying weaker inhibitors is to aid in a quantitative structure activity relationship (QSAR) evaluation, or to identify new herbicidal inhibitor leads. The previously known inhibitor IPP was used as a standard in all tests, where the I50 for IPP was 1-2 uM.

Arabidopsis TS enzyme = molecular target: T2, Arabidopsis TS enzyme (Arabidopsis thaliana, UniProt Q42529); assay: TSα assay with recombinant plant TSα and TSβ expressed in E. coli; format: biochemical; conditions: inhibitor 82 uM; pAC 758 (1.5 ug) + pAC 755 (3 ug)
T2 construct: GST (N, cleaved yes); made in house; host or cells: E. coli DH5α (pGEX-2T constructs)
T2 sequence (Q42529 with tags, fused parts or gaps): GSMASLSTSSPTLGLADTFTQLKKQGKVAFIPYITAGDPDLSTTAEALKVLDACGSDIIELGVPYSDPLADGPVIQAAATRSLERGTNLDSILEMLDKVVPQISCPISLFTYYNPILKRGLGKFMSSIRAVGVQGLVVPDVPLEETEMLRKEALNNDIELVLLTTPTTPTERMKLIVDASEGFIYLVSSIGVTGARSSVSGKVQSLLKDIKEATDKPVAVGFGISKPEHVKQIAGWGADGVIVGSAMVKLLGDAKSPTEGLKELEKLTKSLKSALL
T2 sequence (P14671 with tags, fused parts or gaps partner): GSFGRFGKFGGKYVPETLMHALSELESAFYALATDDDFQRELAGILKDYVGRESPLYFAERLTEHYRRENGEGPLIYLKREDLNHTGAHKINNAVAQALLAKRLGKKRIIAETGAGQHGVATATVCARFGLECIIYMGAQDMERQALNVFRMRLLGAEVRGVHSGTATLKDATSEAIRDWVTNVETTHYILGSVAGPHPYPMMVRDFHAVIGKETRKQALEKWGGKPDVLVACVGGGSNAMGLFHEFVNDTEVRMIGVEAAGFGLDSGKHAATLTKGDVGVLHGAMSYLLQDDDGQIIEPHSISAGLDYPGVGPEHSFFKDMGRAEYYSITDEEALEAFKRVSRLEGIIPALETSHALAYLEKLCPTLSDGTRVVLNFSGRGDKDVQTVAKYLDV
Experimental: The plant TS proteins were expressed as fusion proteins with glutathione transferase (GST) to facilitate purification. After purification, the GST protein was cleaved off with thrombin as described above before the plant TS assays were performed. After thrombin cleavage, both TSα and TSβ-subunit proteins retained a Gly-Ser residue on the N-terminal of the protein in addition to the TS sequence. […]
The TSα enzyme assay was conducted as described in Example 3 for Salmonella TSα.
Specifically, phenylthiophosphonic acid compounds were used. The TSα assay conditions were as described for Salmonella TSα in Example 3 except that recombinant plant proteins were used instead of the Salmonella enzyme.

[2] = TSα reaction, Salmonella holoenzyme, 30 min at 37° C., 100 μM IGP, read-out: TS inhibition I50

Molecule: CCOP(=O)(CCCCSc1cc(Br)ccc1N)OCC [Phosphonic acid, {4-[2-amino-5-bromophenyl)thio]butyl}-, diethyl ester]
herbicidal injury rating (Arabidopsis thaliana; herbicide 7.8 μM): 1 | herbicidal injury rating (Arabidopsis thaliana; herbicide 16 μM): 1 | herbicidal injury rating (Arabidopsis thaliana; herbicide 31 μM): 1 | herbicidal injury rating (Arabidopsis thaliana; herbicide 63 μM): 1 | herbicidal injury rating (Arabidopsis thaliana; herbicide 125 μM): 4 | herbicidal injury rating (Arabidopsis thaliana; herbicide 250 μM): 5 | herbicidal injury rating (Arabidopsis thaliana; herbicide 500 μM): 6 | herbicidal injury rating (Arabidopsis thaliana; herbicide 1000 μM): 8

Molecule: NC1CCCCC1.NC1CCCCC1.O=P(O)(O)CCCC[S+]([O-])c1ccccc1O (stereo not drawn) [Phosphonic acid, {4-[(o-hydroxyphenyl)sulfinyl]butyl}-, with cyclohexylamine (1:2)]
herbicidal rating (Arabidopsis thaliana; herbicide 7.8 mM + 100 μM Trp): 0 | herbicidal rating (Arabidopsis thaliana; herbicide 7.8 mM, no Trp): 5 | herbicidal rating (Arabidopsis thaliana; herbicide 16 mM + 100 μM Trp): 0 | herbicidal rating (Arabidopsis thaliana; herbicide 16 mM, no Trp): 6 | herbicidal rating (Arabidopsis thaliana; herbicide 31 mM + 100 μM Trp): 3 | herbicidal rating (Arabidopsis thaliana; herbicide 31 mM, no Trp): 6 | herbicidal rating (Arabidopsis thaliana; herbicide 63 mM + 100 μM Trp): 5 | herbicidal rating (Arabidopsis thaliana; herbicide 63 mM, no Trp): 6 | herbicidal rating (Arabidopsis thaliana; herbicide 125 mM + 100 μM Trp): 5 | herbicidal rating (Arabidopsis thaliana; herbicide 125 mM, no Trp): 6 | herbicidal rating (Arabidopsis thaliana; herbicide 250 mM + 100 μM Trp): 5 | herbicidal rating (Arabidopsis thaliana; herbicide 250 mM, no Trp): 7Y | herbicidal rating (Arabidopsis thaliana; herbicide 500 mM + 100 μM Trp): 5 | herbicidal rating (Arabidopsis thaliana; herbicide 500 mM, no Trp): 7Y | herbicidal rating (Arabidopsis thaliana; herbicide 1000 mM + 100 μM Trp): 5 | herbicidal rating (Arabidopsis thaliana; herbicide 1000 mM, no Trp): 8

Molecule: Nc1ccccc1SCC=CCP(=O)(O)O [Phosphonic acid, {4-[(o-aminophenyl)thio]-2-butenyl}-]
pIC50 [1, 2]: 6.60 | Enzyme activity, % of control ([1]; inhibitor 100 nM): 70.7 % of control | Enzyme activity, % of control ([1]; inhibitor 300 nM): 43.4 % of control | Enzyme activity, % of control ([1]; inhibitor 1000 nM): 25.3 % of control | Enzyme activity, % of control ([1]; inhibitor 3000 nM): 13.8 % of control | Enzyme activity, % of control ([1]; inhibitor 10000 nM): 4.5 % of control

Molecule: Phosphonic acid, {4-[(o-hydroxyphenyl)thio]butyl}-,aryl-butyrate (ester)
TSα activity, % of control (Arabidopsis TS enzyme): 2.1 % of control | TSα activity, relative Vmax (Arabidopsis TS enzyme): 0.133 mOD/min | herbicidal rating (Arabidopsis thaliana; herbicide 7.8 mM + 100 μM Trp): 1 | herbicidal rating (Arabidopsis thaliana; herbicide 7.8 mM, no Trp): 5 | herbicidal rating (Arabidopsis thaliana; herbicide 16 mM + 100 μM Trp): 1 | herbicidal rating (Arabidopsis thaliana; herbicide 16 mM, no Trp): 6 | herbicidal rating (Arabidopsis thaliana; herbicide 31 mM + 100 μM Trp): 1 | herbicidal rating (Arabidopsis thaliana; herbicide 31 mM, no Trp): 6 | herbicidal rating (Arabidopsis thaliana; herbicide 63 mM + 100 μM Trp): 3 | herbicidal rating (Arabidopsis thaliana; herbicide 63 mM, no Trp): 7 | herbicidal rating (Arabidopsis thaliana; herbicide 125 mM + 100 μM Trp): 5 | herbicidal rating (Arabidopsis thaliana; herbicide 125 mM, no Trp): 7 | herbicidal rating (Arabidopsis thaliana; herbicide 250 mM + 100 μM Trp): 5 | herbicidal rating (Arabidopsis thaliana; herbicide 250 mM, no Trp): 7 | herbicidal rating (Arabidopsis thaliana; herbicide 500 mM + 100 μM Trp): 3 | herbicidal rating (Arabidopsis thaliana; herbicide 500 mM, no Trp): 7 | herbicidal rating (Arabidopsis thaliana; herbicide 1000 mM + 100 μM Trp): 3 | herbicidal rating (Arabidopsis thaliana; herbicide 1000 mM, no Trp): 7

Molecule: Nc1ccc(Cl)cc1SCCCCP(=O)(O)O [Phosphonic acid, {4-[(2-amino-5-chlorophenyl)thio]butyl}-]
herbicidal injury rating (Arabidopsis thaliana; herbicide 7.8 μM): 0 | herbicidal injury rating (Arabidopsis thaliana; herbicide 16 μM): 1 | herbicidal injury rating (Arabidopsis thaliana; herbicide 31 μM): 1 | herbicidal injury rating (Arabidopsis thaliana; herbicide 63 μM): 1 | herbicidal injury rating (Arabidopsis thaliana; herbicide 125 μM): 3 | herbicidal injury rating (Arabidopsis thaliana; herbicide 250 μM): 3 | herbicidal injury rating (Arabidopsis thaliana; herbicide 500 μM): 3 | herbicidal injury rating (Arabidopsis thaliana; herbicide 1000 μM): 3

Molecule: Nc1ccccc1SCCCCP(=O)(O)O [Phosphonic acid, {4-[(o-aminophenyl)thio]butyl}-, dilithium salt]
pIC50 [1, 2]: 6.40

Molecule: CCOP(=O)(CCCCSc1ccccc1O)OCC [Phosphonic acid, {4-[(o-hydroxyphenyl)thio]butyl}-, diethyl ester]
herbicidal injury rating (Arabidopsis thaliana; herbicide 7.8 μM): 0 | herbicidal injury rating (Arabidopsis thaliana; herbicide 16 μM): 1 | herbicidal injury rating (Arabidopsis thaliana; herbicide 31 μM): 3 | herbicidal injury rating (Arabidopsis thaliana; herbicide 63 μM): 5 | herbicidal injury rating (Arabidopsis thaliana; herbicide 125 μM): 6 | herbicidal injury rating (Arabidopsis thaliana; herbicide 250 μM): 7 | herbicidal injury rating (Arabidopsis thaliana; herbicide 500 μM): 8 | herbicidal injury rating (Arabidopsis thaliana; herbicide 1000 μM): 9

Molecule: O=P(O)(O)CCCCS(=O)(=O)c1ccccc1O [Compound 33, Phosphonic acid, {4-[(o-hydroxyphenyl)sulfonyl]butyl}-]
pIC50 ([1]; I50 TS, TSα reaction of Salmonella holoenzyme): 6.44 | TSα activity, % of control (Arabidopsis TS enzyme): 2.4 % of control | TSα activity, relative Vmax (Arabidopsis TS enzyme): 0.150 mOD/min

Molecule: CP(=O)(O)CCCCSc1ccccc1N [Phosphinic acid, {4-[(o-aminophenyl)thio]butyl}methyl-]
pIC50 [1, 2]: 4.00

TSα activity, % of control (Arabidopsis TS enzyme): 14.7 % of control | TSα activity, relative Vmax (Arabidopsis TS enzyme): 0.909 mOD/min
Molecule: O=P(O)(O)CC=CCSc1ccccc1O [Phosphonic acid, {4-[(o-hydroxyphenyl)thio]-2-butenyl}-]

Molecule: Nc1ccc(Br)cc1SCCCCP(=O)(O)O [Phosphonic acid, {4-[2-amino-5-bromophenyl)thio]butyl}-]
pIC50 ([1]; TS inhibition I50, TSα reaction, Salmonella holoenzyme, 30 min at 37° C., 100 μM IGP): 7.15 | Enzyme activity, % of control ([1]; inhibitor 30 nM): 70.5 % of control | Enzyme activity, % of control ([1]; inhibitor 100 nM): 38.5 % of control | Enzyme activity, % of control ([1]; inhibitor 300 nM): 24.7 % of control | Enzyme activity, % of control ([1]; inhibitor 1000 nM): 8.7 % of control | herbicidal injury rating (Arabidopsis thaliana; herbicide 7.8 μM): 1 | herbicidal injury rating (Arabidopsis thaliana; herbicide 16 μM): 1 | herbicidal injury rating (Arabidopsis thaliana; herbicide 31 μM): 2 | herbicidal injury rating (Arabidopsis thaliana; herbicide 63 μM): 3 | herbicidal injury rating (Arabidopsis thaliana; herbicide 125 μM): 3 | herbicidal injury rating (Arabidopsis thaliana; herbicide 250 μM): 4 | herbicidal injury rating (Arabidopsis thaliana; herbicide 500 μM): 4 | herbicidal injury rating (Arabidopsis thaliana; herbicide 1000 μM): 4

Molecule: CCOP(=O)(CCCCSc1cc(Cl)ccc1N)OCC [Phosphonic acid, {4-[(2-amino-5-chlorophenyl)thio]butyl}-, diethyl ester]
herbicidal injury rating (Arabidopsis thaliana; herbicide 16 μM): 0 | herbicidal injury rating (Arabidopsis thaliana; herbicide 31 μM): 1 | herbicidal injury rating (Arabidopsis thaliana; herbicide 63 μM): 1 | herbicidal injury rating (Arabidopsis thaliana; herbicide 125 μM): 3 | herbicidal injury rating (Arabidopsis thaliana; herbicide 250 μM): 5 | herbicidal injury rating (Arabidopsis thaliana; herbicide 500 μM): 6 | herbicidal injury rating (Arabidopsis thaliana; herbicide 1000 μM): 7

Molecule: Nc1cccnc1SCCCCP(=O)(O)O [Phosphonic acid, {4-[3-amino-2-phridyl)thio]butyl}-]
pIC50 [1, 2]: 5.30

Molecule: Nc1cc(C(F)(F)F)ccc1SCCCCP(=O)(O)O [Phosphonic acid, {4-[(2-amino-alpha,alpha,alpha-trifluoro-p-tolyl)thio]butyl}-]
pIC50 [1, 2]: 5.15
